These results are taken from patent US20050227220A1, “Compositions and Methods for Evaluating and Designing Nuclear Receptor Ligands that Modulate Co-Regulator Affinity” (priority 2002, published 2005).

Entries after “also recorded” stand apart in the source; their conditions may differ.

The target in experiment [1] is T1, PPARδ LBD (Homo sapiens, UniProt Q03181).
T1 construct: made in house; host or cells: bacterial BL21-DE3, vector pRSETA
T1 sequence (Q03181 139-441): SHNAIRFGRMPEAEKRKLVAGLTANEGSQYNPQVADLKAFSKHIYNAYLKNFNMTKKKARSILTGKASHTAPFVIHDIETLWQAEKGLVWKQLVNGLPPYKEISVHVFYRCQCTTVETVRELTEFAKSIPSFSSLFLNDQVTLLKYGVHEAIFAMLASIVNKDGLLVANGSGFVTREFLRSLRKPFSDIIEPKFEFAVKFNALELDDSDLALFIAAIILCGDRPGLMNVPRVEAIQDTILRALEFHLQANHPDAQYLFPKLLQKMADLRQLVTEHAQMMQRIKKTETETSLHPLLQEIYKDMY
In words: Fluorescence polarization assay for ligand modulation of nuclear receptor/cofactor peptide affinities. The format is biochemical. As to conditions: result in words. In general terms: Polarisation of emitted light reports the rotation of a fluorescent probe.
Description: Such tests were performed quantitatively by measuring the effect of an excess of ligand on the binding affinity of the co-repressor peptide.
All experiments were conducted with buffer containing 10 mM HEPES, pH 7.4, containing 0.15 M NaCl, 3 mM EDTA, 0.005% polysorbate-20 and 5 mM DTT. Varied concentrations of receptor were incubated at room temperature with 10 nM of fluorescein-labeled NCOR ID-C or SMRT ID-C peptides. […] Binding isotherms were constructed and apparent KD values were determined by non-linear least squares fit of the data to an equation for a simple 1:1 interaction. […] Complex formation was monitored by fluorescence polarization as described in methods. […] All assays were performed in duplicate and affinities are the average of at least two independent experiments.

Experiment [2] concerns the target T1, PPARδ LBD. In words: FRET assay: ligand effect on CBP fragment / NCoR ID-C binding to PPAR LBD. The format is biochemical. As to conditions: for effect on apparent affinity of PPARδ for the co-activator fragment from CBP: CBP (57-454); for log α (NCoR association with PPARδ): α = ratio of cofactor affinities in presence and absence of saturating ligand. The text has this:
(§1) The experimentally determined α value is the ratio of cofactor affinities in the presence and absence of a saturating concentration of ligand. This analysis permits a direct comparison of the effects of compounds, independent of cofactor concentration and differences in coregulator affinity for the individual receptors. […] 98(9): p.
(§2) The effects of the coregulator environment on the apparent affinities and selectivities of various ligands were than examined. Experimentally determined pKs and the α values derived from the FRET assay were used to calculate the apparent affinity of the ligand for the receptor/cofactor complex (i.e. K/α).
(§3) FIG. 5 illustrates the effect of ligands on coactivator and corepressor binding to PPAR subtypes determined by FRET.

The target of a further experiment is T2, PPARα LBD (Homo sapiens, UniProt Q07869).
T2 construct: made in house; host or cells: bacterial BL21-DE3, vector pRSETA
T2 sequence (Q07869 192-468): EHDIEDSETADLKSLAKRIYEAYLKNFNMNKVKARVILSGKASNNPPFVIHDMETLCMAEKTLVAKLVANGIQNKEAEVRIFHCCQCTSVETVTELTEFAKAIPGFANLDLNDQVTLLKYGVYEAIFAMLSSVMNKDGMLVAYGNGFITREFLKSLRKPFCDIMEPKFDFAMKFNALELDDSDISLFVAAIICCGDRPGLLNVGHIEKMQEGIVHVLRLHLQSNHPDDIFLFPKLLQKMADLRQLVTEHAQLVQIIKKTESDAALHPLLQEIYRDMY
Described as above. Format: biochemical. As to conditions: for effect on apparent affinity of PPARα for the co-activator fragment from CBP: CBP (57-454).
Description: as §1, §2, §3

For another experiment, the target named is T3, full length human PPARδ (Homo sapiens, UniProt Q03181).
T3 construct: expressed in transfected cells; host or cells: CV-1 cells, vector pVP16 (Clonetech)
Description: Mammalian two-hybrid assay (CV-1 cells). Format: cell-based. The conditions noted are these: VP16-PPARδ, GAL4-NCoR (2239-2300), result in words. The text has this:
(§4) Mammalian two-hybrid assays were used to examine the ability of the tyrosine-based class of PPAR ligands to promote association or dissociation of the co-activator CBP and the corepressor NCoR in the context of a cellular environment. The assays for the three PPAR subtypes used full length human PPARα, PPARγ2 or PPARδ fused to the activation domain of VP16 and previously identified interaction domains of CBP and NCoR fused to the DNA binding domain of GAL4.
(§5) Expression plasmids for the VP16-human PPAR constructs were prepared by inserting amplified cDNAs encoding full length PPARα, PPARγ2 and PPARδ fused to amino acids 410-490 of the VP16 viral activation domain, into the expression vector pVP16 (Clonetech). […] The reporter plasmid was (UAS)5-tk-SPAP, and the internal control plasmid for all transfections was β-galactosidase expression vector (pCH110, Amersham).
(§6) CV-1 cells were maintained in culture in DME high glucose medium supplemented with 10% FBS and 2 mM glutamine in a humidified incubator (5% CO2 in air) at 37° C. Cells were harvested 72 hours prior to experimental use and placed in phenol red free D-MEM/F-12 medium with 15 mM HEPES supplemented with 10% charcoal/dextran-treated FBS (HyClone, Logan, Utah). The cells were harvested and seeded at 2.0×10^4 cell per well in a 96-well plate the day prior to transfection. Cells were transfected for 16 hr using Lipofectamine (Life Technologies, Inc., Rockville, Md.) essentially according to the manufacturer's instructions. The total amount of DNA transfected into each well was 80 ng. Transfection mixtures contained 8 ng VP16-PPAR plasmid, 8 ng SPAP reporter, 25 ng of pCH110(β-galactosidase) control plasmid, 35 ng of pBluescript II KS+ (Clonetech) and 4 ng of either coactivator or corepressor plasmid. Transfection quantities for full length PPAR and cofactor plasmids were optimized to generate a signal that was half of the maximal activation. These conditions would allow for dissociation or association to be experimentally determined for each ligand evaluated. Stock solutions of drugs were prepated in DMSO and dilutions were made in phenol red-free D-MEM/F-12 with 15 mM HEPES supplemented with 10% charcoal stripped, delipidated, heat inactivated (62° C. for 35 min) bovine calf serum (Sigma, St. Louis, Mo.) such that the final concentration of DMSO was 0.1%. Transfection mixtures were aspirated and 100 μl, of medium containing drug was added to each well.

The target of the next experiment is T4, full length human PPARα (Homo sapiens, UniProt Q07869).
T4 construct: expressed in transfected cells; host or cells: CV-1 cells, vector pVP16 (Clonetech)
T4 sequence (Q07869 1-468): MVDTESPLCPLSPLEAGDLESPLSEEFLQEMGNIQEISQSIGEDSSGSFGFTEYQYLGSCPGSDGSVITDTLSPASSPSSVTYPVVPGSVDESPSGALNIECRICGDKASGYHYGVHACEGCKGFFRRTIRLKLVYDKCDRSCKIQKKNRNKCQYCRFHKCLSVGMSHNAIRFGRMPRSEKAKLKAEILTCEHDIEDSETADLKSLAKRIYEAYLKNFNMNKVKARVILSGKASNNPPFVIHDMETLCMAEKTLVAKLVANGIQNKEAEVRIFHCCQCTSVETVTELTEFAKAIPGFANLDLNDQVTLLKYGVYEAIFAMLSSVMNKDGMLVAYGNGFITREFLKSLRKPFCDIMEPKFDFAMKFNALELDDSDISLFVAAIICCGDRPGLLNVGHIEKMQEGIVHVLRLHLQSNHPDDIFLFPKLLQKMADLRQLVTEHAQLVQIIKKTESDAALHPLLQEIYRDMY
In words: Mammalian two-hybrid assay (CV-1 cells). Format: cell-based. As to conditions: VP16-PPARα, GAL4-NCoR (2239-2300), result in words.
Description: as §4, §5, §6

For the next experiment, the target named is T5, PPARδ LBD / RXRα LBD (Homo sapiens, UniProt Q03181).
T5 sequence (Q03181 139-441): T1 sequence (Q03181 139-441)
T5 sequence (P19793 225-462 partner limits assumed): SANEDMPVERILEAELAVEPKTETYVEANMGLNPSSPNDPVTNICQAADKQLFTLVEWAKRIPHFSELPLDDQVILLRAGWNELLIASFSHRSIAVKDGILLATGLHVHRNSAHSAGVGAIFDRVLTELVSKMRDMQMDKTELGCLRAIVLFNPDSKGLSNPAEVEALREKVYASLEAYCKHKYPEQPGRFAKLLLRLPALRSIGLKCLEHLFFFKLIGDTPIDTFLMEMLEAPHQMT
Description: FRET assay: ligand effect on RXRα LBD binding to PPAR LBD. As to conditions: 10 nM PPAR LBD, 4 concentrations of RXR.

The target of the next experiment is T6, PPARγ LBD (Homo sapiens, UniProt P37231).
T6 construct: made in house; host or cells: bacterial BL21-DE3, vector pRSETA
Description: FRET assay: ligand effect on CBP fragment / NCoR ID-C binding to PPAR LBD. As to conditions: 10 nM PPAR LBD. Format: biochemical.
Description: as §1, §2, §3

For experiment [3], the target named is PPARγ ligand binding domain (Homo sapiens, UniProt P37231). In words: Surface plasmon resonance: effect of compounds on co-repressor peptide binding to PPAR LBD. The conditions noted are these: SPR equilibrium response, immobilized biotinylated peptides. (In general: In SPR one partner is held on a chip, and binding of the other changes the refractive index at the surface.)
Description: (§7) A surface plasmon resonance assay was used to further characterize the effects of PPAR ligands binding of peptides derived from the co-repressors NCOR and SMRT to the PPAR subtypes. Each peptide was biotinylated and immobilized on separate flow cells of a BlAcore sensor chip. Using a BIAcore instrument, fixed concentrations of each PPAR subtype ligand binding domain were incubated with varied concentrations of test compounds and injected over the peptide-derivatized sensor chip to determine the equilibrium binding response of the receptors for the immobilized peptides.
(§8) The binding of co-activator and co-repressor peptides with PPAR ligand binding domains and the effects of compounds on these interactions were determined by surface plasmon resonance using the Biacore 3000. Approximately 300 resonance units (RU) of biotinylated peptides were immobilized to individual flow cells of a streptavidin chip. All experiments were conducted at 25° C. at a flow rate of 10 μl/minute with a buffer containing 10 mM HEPES, pH 7.4, containing 0.15 M NaCl, 3 mM EDTA and 0.005% polysorbate-20. […] Binding was determined by measuring the equilibrium binding response 10 seconds before the end of the association phase minus the response from a flow cell with no immobilized peptide.
(§9) Each point is the average of three injections.

In experiment [4] the target is PPARα ligand binding domain (Homo sapiens, UniProt Q07869). The experiment is described as above. As to conditions: SPR equilibrium response, immobilized biotinylated peptides.
Description: as §7, §8, §9

T6 sequence (P37231 234-505): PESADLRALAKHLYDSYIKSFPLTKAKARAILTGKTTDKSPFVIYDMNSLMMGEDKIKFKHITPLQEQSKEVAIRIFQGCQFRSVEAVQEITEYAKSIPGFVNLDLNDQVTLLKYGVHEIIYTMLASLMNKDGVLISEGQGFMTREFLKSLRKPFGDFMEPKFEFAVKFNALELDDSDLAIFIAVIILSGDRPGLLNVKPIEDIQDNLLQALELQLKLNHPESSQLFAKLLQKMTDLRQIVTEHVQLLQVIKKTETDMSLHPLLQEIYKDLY
T3 sequence (Q03181 whole entry): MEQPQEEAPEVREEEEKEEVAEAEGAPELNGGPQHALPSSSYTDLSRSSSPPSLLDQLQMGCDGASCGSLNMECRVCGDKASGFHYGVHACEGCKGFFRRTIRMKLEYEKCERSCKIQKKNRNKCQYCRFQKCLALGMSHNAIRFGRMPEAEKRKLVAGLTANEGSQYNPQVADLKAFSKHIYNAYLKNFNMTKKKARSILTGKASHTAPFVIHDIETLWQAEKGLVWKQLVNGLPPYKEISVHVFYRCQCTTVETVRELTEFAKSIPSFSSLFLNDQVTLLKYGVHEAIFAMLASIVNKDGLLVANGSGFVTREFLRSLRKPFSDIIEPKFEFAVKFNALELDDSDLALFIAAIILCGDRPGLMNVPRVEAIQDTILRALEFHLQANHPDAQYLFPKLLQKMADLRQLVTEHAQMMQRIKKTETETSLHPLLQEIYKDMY
PPARγ ligand binding domain, sequence (P37231 234-505): as the sequence (P37231 234-505) above

For the compound `CN(CCOc1ccc(C[C@H](Nc2ccccc2C(=O)c2ccccc2)C(=O)O)cc1)c1ccccn1` [GW1929], the “effect on PPARδ interaction with the coactivator peptide (TRAP220)” value on PPARδ LBD [1] is recorded as “little or no effect”. At PPARδ LBD [2] (10 nM PPAR LBD), the “effect on apparent affinity of PPARδ for the co-activator fragment from CBP” value is reported as “increased the apparent affinity”. The “effect on affinity of PPARδ for the co-repressor peptide” value on PPARδ LBD [2] (10 nM PPAR LBD, NCoR ID-C) is recorded as “greatest effect”. On PPARδ LBD [2], the “log α (NCoR association with PPARδ)” value is recorded as 0.52. For the same compound, on PPARα LBD (10 nM PPAR LBD), the “effect on apparent affinity of PPARα for the co-activator fragment from CBP” value is given as “increased the apparent affinity”. For the same compound, the “effect on PPARδ interaction with NCoR” value at full length human PPARδ is “slightly promote association”. The “effect on PPARα interaction with NCoR” value on full length human PPARα is “neither GW1929 nor GW7845 were able to promote association with NCoR”. For the same compound, on PPARδ LBD / RXRα LBD, the “promotion of association of PPARδ with RXR” value was “most effective”.
Consider `COC(=O)c1ccccc1N[C@@H](Cc1ccc(OCCc2nc(-c3ccccc3)oc2C)cc1)C(=O)O` [GW7845], for which, at PPARδ LBD [2] (10 nM PPAR LBD), the “effect on apparent affinity of PPARδ for the co-activator fragment from CBP” value is on record as “increased the apparent affinity”. Also, the “log α (NCoR association with PPARδ)” value on PPARδ LBD [2] was 0.14. Besides, the “effect on apparent affinity of PPARα for the co-activator fragment from CBP” value at PPARα LBD (10 nM PPAR LBD) is “increased the apparent affinity”. The “effect on affinity of PPARα for the co-repressor peptide” value at PPARα LBD (10 nM PPAR LBD, NCoR ID-C) is recorded as “enhanced the binding; also recorded: slightly increase the affinity”. In addition, on PPARα LBD (α = ratio of cofactor affinities in presence and absence of saturating ligand), the “alpha value for the association of PPARα and NCoR” value is 0.16. For the same compound, on PPARγ LBD (CBP (57-454)), the “effect on apparent affinity of PPARγ for the co-activator fragment from CBP” value is “increased the apparent affinity”. Also, the “effect on affinity of PPARγ for the co-repressor peptide” value at PPARγ LBD (NCoR ID-C) was “decrease the affinity”. Further, the “effect on binding of PPARγ LBD to the NCOR- and SMRT-derived co-repressor peptides” value in experiment [3] is on record as “decreased the binding”. The “effect on binding of PPARα LBD to the NCOR and SMRT co-repressor peptides” value in experiment [4] is listed as “increase the binding”. For the same compound, the “effect on PPARδ interaction with NCoR” value on full length human PPARδ was “no significant association”. Further, the “effect on PPARα interaction with NCoR” value on full length human PPARα is “neither GW1929 nor GW7845 were able to promote association with NCoR”. Further, the “promotion of association of PPARδ with RXR” value on PPARδ LBD / RXRα LBD is recorded as “most effective”.
